# In ChEMBL document CHEMBL4261593, “Synthesis and antibacterial activity of novel 3-O-arylalkylcarbamoyl-3-O-descladinosyl-9-O-(2-chlorobenzyl)oxime clarithromycin derivatives” (2018):
# What was measured:
# Assay type in all cases: functional
# Streptococcus pyogenes [1] = assay: Antibacterial activity against erythromycin-susceptible Streptococcus pyogenes 1 after 24 hrs by broth dilution assay; conditions: Streptococcus pyogenes, 1, 24 h
# Escherichia coli = assay: Antibacterial activity against penicillin-susceptible Escherichia coli ATCC 25922 after 24 hrs by broth dilution assay; conditions: ATCC 25922, 24 h
# Pseudomonas aeruginosa = assay: Antibacterial activity against penicillin-susceptible Pseudomonas aeruginosa ATCC 27853 after 24 hrs by broth dilution assay; conditions: ATCC 27853, 24 h
# Bacillus subtilis = assay: Antibacterial activity against penicillin-susceptible Bacillus subtilis ATCC 9372 after 24 hrs by broth dilution assay; conditions: ATCC 9372, 24 h
# Staphylococcus aureus [2] = assay: Antibacterial activity against erythromycin-susceptible Staphylococcus aureus ATCC 25923 after 24 hrs by broth dilution assay; conditions: ATCC 25923, 24 h
# Staphylococcus aureus [3] = assay: Antibacterial activity against […] Staphylococcus aureus ATCC 29213 after 24 hrs by broth dilution assay; conditions: ATCC 29213, 24 h
# Staphylococcus aureus [4] = assay: Antibacterial activity against penicillin-resistant Staphylococcus aureus ATCC 31007 after 24 hrs by broth dilution assay; conditions: ATCC 31007, 24 h
# Streptococcus pyogenes [5] = assay: Antibacterial activity against erythromycin-resistant Streptococcus pyogenes 2 after 24 hrs by broth dilution assay; conditions: Streptococcus pyogenes, 2, 24 h
# Streptococcus pneumoniae [6] = assay: Antibacterial activity against erythromycin-resistant Streptococcus pneumoniae A22072 expressing mefA gene after 24 hrs by broth dilution assay; conditions: A22072, 24 h
# Streptococcus pneumoniae [7] = assay: Antibacterial activity against erythromycin-resistant Streptococcus pneumoniae B1 expressing ermB gene after 24 hrs by broth dilution assay; conditions: B1, 24 h
# Streptococcus pneumoniae [8] = assay: Antibacterial activity against erythromycin-resistant Streptococcus pneumoniae AB11 expressing ermB and mefA genes after 24 hrs by broth dilution assay; conditions: AB11, 24 h
Compound,MIC (Streptococcus pyogenes [1]) [µg/mL],MIC (Escherichia coli) [µg/mL],MIC (Pseudomonas aeruginosa) [µg/mL],MIC (Bacillus subtilis) [µg/mL],MIC (Staphylococcus aureus [2]) [µg/mL],MIC (Staphylococcus aureus [3]) [µg/mL],MIC (Staphylococcus aureus [4]) [µg/mL],MIC (Streptococcus pyogenes [5]) [µg/mL],MIC (Streptococcus pneumoniae [6]) [µg/mL],MIC (Streptococcus pneumoniae [7]) [µg/mL],MIC (Streptococcus pneumoniae [8]) [µg/mL]
C#CCNC(=O)O[C@H]1[C@H](C)[C@@H](O[C@@H]2O[C@H](C)C[C@H](N(C)C)[C@H]2O)[C@](C)(OC)C[C@@H](C)/C(=N/OCc2ccccc2Cl)[C@H](C)[C@@H](O)[C@](C)(O)[C@@H](CC)OC(=O)[C@@H]1C,4,128,128,2,,,,,,,
CC[C@H]1OC(=O)[C@H](C)[C@@H](OC(=O)NC2CCCCC2)[C@H](C)[C@@H](O[C@@H]2O[C@H](C)C[C@H](N(C)C)[C@H]2O)[C@](C)(OC)C[C@@H](C)/C(=N/OCc2ccccc2Cl)[C@H](C)[C@@H](O)[C@]1(C)O,2,128,128,4,16,128,8,16,1,128,128
CC[C@H]1OC(=O)[C@H](C)[C@@H](OC(=O)NCCc2ccc(OC)cc2)[C@H](C)[C@@H](O[C@@H]2O[C@H](C)C[C@H](N(C)C)[C@H]2O)[C@](C)(OC)C[C@@H](C)/C(=N/OCc2ccccc2Cl)[C@H](C)[C@@H](O)[C@]1(C)O,2,128,128,2,16,128,4,8,1,128,128
CC[C@H]1OC(=O)[C@H](C)[C@@H](OC(=O)NCCc2ccccc2)[C@H](C)[C@@H](O[C@@H]2O[C@H](C)C[C@H](N(C)C)[C@H]2O)[C@](C)(OC)C[C@@H](C)/C(=N/OCc2ccccc2Cl)[C@H](C)[C@@H](O)[C@]1(C)O,8,128,128,8,16,128,8,16,2,128,128
CCCCCCNC(=O)O[C@H]1[C@H](C)[C@@H](O[C@@H]2O[C@H](C)C[C@H](N(C)C)[C@H]2O)[C@](C)(OC)C[C@@H](C)/C(=N/OCc2ccccc2Cl)[C@H](C)[C@@H](O)[C@](C)(O)[C@@H](CC)OC(=O)[C@@H]1C,2,128,128,2,16,128,4,8,1,128,128
CC[C@H]1OC(=O)[C@H](C)[C@@H](OC(=O)NCc2ccc(F)cc2)[C@H](C)[C@@H](O[C@@H]2O[C@H](C)C[C@H](N(C)C)[C@H]2O)[C@](C)(OC)C[C@@H](C)/C(=N/OCc2ccccc2Cl)[C@H](C)[C@@H](O)[C@]1(C)O,2,128,128,2,4,128,4,8,1,128,128
CC[C@H]1OC(=O)[C@H](C)[C@@H](OC(=O)NCc2ccco2)[C@H](C)[C@@H](O[C@@H]2O[C@H](C)C[C@H](N(C)C)[C@H]2O)[C@](C)(OC)C[C@@H](C)/C(=N/OCc2ccccc2Cl)[C@H](C)[C@@H](O)[C@]1(C)O,4,128,128,4,16,128,8,16,1,128,128
CC[C@H]1OC(=O)[C@H](C)[C@@H](OC(=O)NCc2ccccc2Cl)[C@H](C)[C@@H](O[C@@H]2O[C@H](C)C[C@H](N(C)C)[C@H]2O)[C@](C)(OC)C[C@@H](C)/C(=N/OCc2ccccc2Cl)[C@H](C)[C@@H](O)[C@]1(C)O,4,128,128,2,8,128,4,16,1,128,128
CCNC(=O)O[C@H]1[C@H](C)[C@@H](O[C@@H]2O[C@H](C)C[C@H](N(C)C)[C@H]2O)[C@](C)(OC)C[C@@H](C)/C(=N/OCc2ccccc2Cl)[C@H](C)[C@@H](O)[C@](C)(O)[C@@H](CC)OC(=O)[C@@H]1C,2,128,128,8,16,128,16,32,1,128,128
CC[C@H]1OC(=O)[C@H](C)[C@@H](OC(=O)NCc2ccccc2OC)[C@H](C)[C@@H](O[C@@H]2O[C@H](C)C[C@H](N(C)C)[C@H]2O)[C@](C)(OC)C[C@@H](C)/C(=N/OCc2ccccc2Cl)[C@H](C)[C@@H](O)[C@]1(C)O,4,128,128,4,16,128,4,16,1,128,128
CC[C@H]1OC(=O)[C@H](C)[C@@H](OC(=O)NCc2ccc(OC)cc2)[C@H](C)[C@@H](O[C@@H]2O[C@H](C)C[C@H](N(C)C)[C@H]2O)[C@](C)(OC)C[C@@H](C)/C(=N/OCc2ccccc2Cl)[C@H](C)[C@@H](O)[C@]1(C)O,4,128,128,4,16,128,8,16,2,128,128
CC[C@H]1OC(=O)[C@H](C)[C@@H](OC(=O)NC2CCCC2)[C@H](C)[C@@H](O[C@@H]2O[C@H](C)C[C@H](N(C)C)[C@H]2O)[C@](C)(OC)C[C@@H](C)/C(=N/OCc2ccccc2Cl)[C@H](C)[C@@H](O)[C@]1(C)O,2,128,128,4,16,128,8,16,0.5,128,128
CC[C@H]1OC(=O)[C@H](C)[C@@H](OC(=O)NCC(C)C)[C@H](C)[C@@H](O[C@@H]2O[C@H](C)C[C@H](N(C)C)[C@H]2O)[C@](C)(OC)C[C@@H](C)/C(=N/OCc2ccccc2Cl)[C@H](C)[C@@H](O)[C@]1(C)O,1,128,128,2,8,128,8,16,1,128,128
CC[C@H]1OC(=O)[C@H](C)[C@@H](OC(=O)NCc2ccc(C)cc2)[C@H](C)[C@@H](O[C@@H]2O[C@H](C)C[C@H](N(C)C)[C@H]2O)[C@](C)(OC)C[C@@H](C)/C(=N/OCc2ccccc2Cl)[C@H](C)[C@@H](O)[C@]1(C)O,2,128,128,2,8,128,4,16,1,128,128
